Measured values published in the supplement of paper PMC11061612.

Columns and labels:
[1] = test system: NCI-H1876 (Small Cell Lung Carcinoma); assay: combination Emax (second highest fraction inhibited in the dose matrix, 72 h); higher = more inhibition; extreme values may be limits of the assay
How it was run: (§1)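 Cell lines in DMEM/F12 or RPMI with 10% FBS were plated in 1536-well plates, held 24 hours at 37°C, 5% CO2, then given two-drug dose matrices for 72 hours (DMSO typically 0.2%). Viability was read by CellTiter-Glo 2.0 luminescence and scaled as inhibition from 0 (vehicle wells) to 1 (blank wells). Combination Emax is the second-highest inhibition in the matrix; Bliss excess is observed combination effect minus expected EA + EB − EA·EB, EA and EB being single-agent effects.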

[2] = test system: NAMALWA (Burkitt's Lymphoma); assay: as above
How it was run: as §1

[3] = test system: MM1S (Plasma Cell Myeloma); assay: as above
How it was run: as §1

[4] = test system: P30-OHK (B-Lymphoblastic Leukemia); assay: as above
How it was run: as §1

[5] = test system: SNU-423 (Hepatocellular Carcinoma); assay: as above
How it was run: as §1

[6] = test system: LCLC-103H (Non-Small Cell Lung Carcinoma); assay: as above
How it was run: as §1

[7] = test system: NCI-H1963 (Small Cell Lung Carcinoma); assay: as above
How it was run: as §1

UACC-257 (Melanoma) = assay: as above
How it was run: as §1

[8] = test system: RCC-JW (Kidney Carcinoma); assay: as above
How it was run: as §1

WM35 (Melanoma) = assay: as above
How it was run: as §1

[9] = test system: PA-TU-8988T (Pancreatic Carcinoma); assay: as above
How it was run: as §1

[10] = test system: MDA-MB-415 (Breast Carcinoma); assay: as above
How it was run: as §1

[11] = test system: SNU-C2B (Colorectal Carcinoma); assay: as above
How it was run: as §1

[12] = test system: ZR-75-30 (Breast Carcinoma); assay: as above
How it was run: as §1

[13] = test system: Raji (Burkitt's Lymphoma); assay: as above
How it was run: as §1

AM-38 (Glioblastoma) = assay: as above
How it was run: as §1

NB1 (Neuroblastoma) = assay: as above
How it was run: as §1

[14] = test system: MOLT-13 (T-Lymphoblastic Leukemia); assay: Bliss excess, mean over the matrix (fraction); higher = more synergy
How it was run: as §1

[15] = test system: BHT-101 (Thyroid Gland Carcinoma); assay: as above
How it was run: as §1

[16] = test system: MDA-MB-415 (Breast Carcinoma); assay: as above
How it was run: as §1
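Wherever Bliss excess, mean over the matrix is given: after 72 h of two-drug dosing.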

Row | Structure (SMILES) | combination Emax [1] | combination Emax [2] | combination Emax [3] | combination Emax [4] | combination Emax [5] | combination Emax [6] | combination Emax [7] | combination Emax (UACC-257 (Melanoma)) | combination Emax [8] | combination Emax (WM35 (Melanoma)) | combination Emax [9] | combination Emax [10] | combination Emax [11] | combination Emax [12] | combination Emax [13] | combination Emax (AM-38 (Glioblastoma)) | combination Emax (NB1 (Neuroblastoma)) | Bliss excess [14] | Bliss excess [15] | Bliss excess [16]
1 | COc1cc2ncnc(Nc3ccc(F)c(Cl)c3)c2cc1OCCCN1CCOCC1 [Gefitinib] + CC(C)n1c(=O)n(C)c2cnc3cc(F)c(-c4ccc(OCCCN5CCCCC5)nc4)cc3c21 [AZD1390] (first compound max 10 µM, 7x7, partner max 0.3 µM) | 0.178 | 0.214 | 0.217 | 0.173 | 0.126 | 0.195 | 0.062 | 0.053 | 0.226 | 0.0767 | 0.15 | 0.191 | 0.246 | 0.446 | 0.162 | 0.123 | 0.0869 | -0.0246 | -0.035 | -0.103
2 | CS(=O)(=O)CCNCc1ccc(-c2ccc3ncnc(Nc4ccc(OCc5cccc(F)c5)c(Cl)c4)c3c2)o1 [Lapatinib] + C[C@@H](Oc1cc(-c2cnn(C3CCNCC3)c2)cnc1N)c1c(Cl)ccc(F)c1Cl [Crizotinib] (first compound max 10 µM, 7x7, partner max 10 µM) | 0.934 | 0.942 | 0.962 | 0.972 | 0.952 | 0.624 | 0.966 | 0.947 | 0.976 | 0.88 | 0.64 | 0.633 | 0.753 | 0.83 | 0.76 | 0.91 | 0.965 | 0.0036 | -0.0399 | -0.0417
3 | CC(=O)c1c(C)c2cnc(Nc3ccc(N4CCNCC4)cn3)nc2n(C2CCCC2)c1=O [Palbociclib] + CC1(C)CCC(CN2CCN(c3ccc(C(=O)NS(=O)(=O)c4ccc(NCC5CCOCC5)c([N+](=O)[O-])c4)c(Oc4cnc5[nH]ccc5c4)c3)CC2)=C(c2ccc(Cl)cc2)C1 [Venetoclax] (first compound max 10 µM, 7x7, partner max 1 µM) | 0.224 | 0.537 | 0.308 | 0.866 | 0.179 | 0.251 | 0.922 | 0.057 | 0.215 | 0.135 | 0.141 | 0.155 | 0.152 | 0.101 | 0.436 | 0.328 | 0.345 | 0.112 | -0.0607 | -0.0338
4 | CC(=O)c1c(C)c2cnc(Nc3ccc(N4CCNCC4)cn3)nc2n(C2CCCC2)c1=O [Palbociclib] + Cc1c2c(nn1C)CSCc1cc(n(C)n1)CSc1cc(c3ccccc3c1)OCCCc1c(C(=O)O)n(C)c3c-2c(Cl)ccc13 [AZD5991] (first compound max 10 µM, 7x7, partner max 1 µM) | 0.534 | 0.956 | 0.26 | 0.811 | 0.315 | 0.329 | 0.534 | 0.21 | 0.255 | 0.208 | 0.229 | 0.444 | 0.365 | 0.26 | 0.704 | 0.405 | 0.529 | 0.0478 | -0.0105 | -0.113
5 | CC(=O)c1c(C)c2cnc(Nc3ccc(N4CCNCC4)cn3)nc2n(C2CCCC2)c1=O [Palbociclib] + Cn1cnc2c(F)c(Nc3ccc(Br)cc3Cl)c(C(=O)NOCCO)cc21 [Selumetinib] (first compound max 10 µM, 7x7, partner max 10 µM) | 0.312 | 0.595 | 0.253 | 0.408 | 0.241 | 0.248 | 0.456 | 0.647 | 0.239 | 0.718 | 0.514 | 0.254 | 0.303 | 0 | 0.453 | 0.568 | 0.376 | 0.193 | -0.0073 | -0.0588
6 | COc1cccc(OCCCN)c1-c1cc(Nc2cnc(C#N)cn2)n[nH]1 [Prexasertib] + C=CCn1c(=O)c2cnc(Nc3ccc(N4CCN(C)CC4)cc3)nc2n1-c1cccc(C(C)(C)O)n1 [AZD1775] (first compound max 1 µM, partner max 1 µM) | 1 | 0.989 | 0.963 | 0.98 | 0.878 | 0.854 | 1 | 0.48 | 0.703 | 0.819 | 0.898 | 0.584 | 0.676 | 0.137 | 0.977 | 0.857 | 0.906 | 0.0981 | 0.136 | 0.0729
7 | COc1cccc(OCCCN)c1-c1cc(Nc2cnc(C#N)cn2)n[nH]1 [Prexasertib] + CCc1c2c(nc3ccc(O)cc13)-c1cc3c(c(=O)n1C2)COC(=O)[C@]3(O)CC [SN-38] (first compound max 1 µM, 7x7, partner max 0.3 µM) | 1 | 0.986 | 1 | 0.995 | 0.779 | 0.932 | 1 | 0.295 | 0.637 | 0.726 | 0.921 | 0.538 | 0.658 | 0.14 | 0.983 | 0.891 | 0.912 | -0.0112 | 0.0077 | 0.106
8 | COc1cccc(OCCCN)c1-c1cc(Nc2cnc(C#N)cn2)n[nH]1 [Prexasertib] + CN(C)CCCOc1ccc(-c2ccc3ncc4c(c3c2)n(C2CCOCC2)c(=O)n4C)cn1 [AZD0156] (first compound max 1 µM, 7x7, partner max 1 µM) | 0.968 | 0.991 | 0.847 | 0.987 | 0.713 | 0.718 | 0.975 | 0.364 | 0.366 | 0.845 | 0.38 | 0.321 | 0.622 | 0.117 | 0.959 | 0.837 | 0.911 | 0.0118 | 0.0275 | -0.0099
9 | COc1cccc(OCCCN)c1-c1cc(Nc2cnc(C#N)cn2)n[nH]1 [Prexasertib] + C[C@@H]1COCCN1C2=NC(=NC(=C2)C3(CC3)[S@](=N)(=O)C)C4=C5C=CNC5=NC=C4 [AZD6738] (first compound max 1 µM, 7x7, partner max 10 µM) | 0.981 | 0.986 | 0.877 | 0.981 | 0.695 | 0.738 | 0.952 | 0.33 | 0.589 | 0.833 | 0.46 | 0.45 | 0.649 | 0.166 | 0.956 | 0.847 | 0.773 | 0.002 | 0.0322 | -0.0055
10 | COc1cccc(OCCCN)c1-c1cc(Nc2cnc(C#N)cn2)n[nH]1 [Prexasertib] + Cc1cc2ncnn2cc1Nc1ncc2c(n1)n(C1CCOCC1)c(=O)n2C [AZD7648] (first compound max 1 µM, 7x7, partner max 10 µM) | 0.988 | 0.994 | 0.858 | 0.984 | 0.735 | 0.725 | 0.975 | 0.321 | 0.501 | 0.772 | 0.532 | 0.413 | 0.706 | 0.17 | 0.97 | 0.845 | 0.78 | 0.004 | 0.0399 | -0.0331
11 | COc1cccc(OCCCN)c1-c1cc(Nc2cnc(C#N)cn2)n[nH]1 [Prexasertib] + O=C(c1cc(Cc2n[nH]c(=O)c3ccccc23)ccc1F)N1CCN(C(=O)C2CC2)CC1 [Olaparib] (first compound max 1 µM, 7x7, partner max 10 µM) | 0.981 | 0.983 | 0.931 | 0.991 | 0.77 | 0.78 | 0.908 | 0.312 | 0.319 | 0.79 | 0.288 | 0.397 | 0.66 | 0.202 | 0.982 | 0.847 | 0.561 | 0.0013 | -0.0528 | 0.0074
12 | COc1cc2c(cc1OCCCCCOc1cc3c(cc1OC)C(=O)N1C=C(C)C[C@H]1C=N3)N=C[C@@H]1CC(C)=CN1C2=O [SG3199] + O=C(c1cc(Cc2n[nH]c(=O)c3ccccc23)ccc1F)N1CCN(C(=O)C2CC2)CC1 [Olaparib] (first compound max 0.001 µM, 7x7, partner max 10 µM) | 0.7 | 0.575 | 0.293 | 0.31 | 0.146 | 0.0713 | 0.293 | 0.0273 | 0.0774 | 0.144 | 0.206 | 0.0958 | 0.249 | 0.308 | 0.43 | 0.306 | 0.187 | 0.018 | -0.009 | -0.0333
13 | CCc1c2c(nc3ccc(O)cc13)-c1cc3c(c(=O)n1C2)COC(=O)[C@]3(O)CC [SN-38] + CN(C)CCCOc1ccc(-c2ccc3ncc4c(c3c2)n(C2CCOCC2)c(=O)n4C)cn1 [AZD0156] (first compound max 0.3 µM, 7x7, partner max 1 µM) | 1 | 0.989 | 0.966 | 0.973 | 0.455 | 0.486 | 0.822 | 0.281 | 0.656 | 0.509 | 0.704 | 0.294 | 0.397 | 0.0683 | 0.958 | 0.917 | 0.83 | 0.085 | 0.0664 | -0.0262
